Results taken from EP0547705A1, “Pharmacologically active tricyclic benzotriazepine derivatives” (CONSEJO SUPERIOR DE INVESTIGACIONES CIENTIFICAS, priority 1991, dated 1993).

Experiments:
[1] = Siegmund test (inhibition of pain); assay type: in vivo; details: 100 mg/kg p.o.
Description: (§1) The compounds of formula I are antidepressant, diuretic, antihypertensive, antihistamic, anticonvulsive, antipyretic, anti-inflammatory and/or analgesic agents. […] Exp. Biol. Med. 95, 729 (1957.)] In connection with its activity, this compound is very safe with a LD₅₀ of 1250 mg/kg p.o. in mice.

[2] = Acute toxicity LD50 p.o. in mice; details: mouse, in vivo, po, read-out: LD₅₀
Description: as §1

[3] = Antagonism of the effects of tetrabenazine (ptosis, akinesia, hypothermia), antidepressant activity; assay type: in vivo; details: for prevents ptosis: 25 mg/kg p.o., tetrabenazine-induced ptosis; for antagonism to hypothermia produced by tetrabenazine: dose not restated (25 mg/kg p.o. given for ptosis in same sentence)
Description: The antidepressant activity of these compounds is measured in terms of their capacity of antagonizing the effects of tetrabenazine (ptosis, akinesia and hypothermia), this action being characteristic of antidepressants such as amitriptiline or thianeptine (New Drugs: Discovery and Development. A.A. Rubin (Ed.), Marcel Dekker, Inc. New York-Basel, 203 (1978.)) For example, 2-[(5,10-dihydro-4,4-dioxo-5-methylthieno[3,4-c][2,1]benzothiazepin-10-yl)oxy]-N-methylethylamine (example 53) and 2-[(4,9-dihydro-2,9-dimethyl-10,10-dioxo-2H-pyrazolo[3,4-c][2,1]-benzothiazepin-4-yl)oxy]-1-ethylpyrrolidine (example 91) prevents ptosis at 25 mg/kg p.o., 100% and 90%, respectively, while the antagonism to hypothermia produced by tetrabenazine when administered is 85 % and 75 %, respectively.

## CN1c2ccccc2C(O)c2sccc2S1(=O)=O (stereo not drawn) [example 1, 5,10-dihydro-4,4-dioxo-10-hydroxy-5-methylthieno[3,2-c][2,1]benzothiazepine]
[1]
  inhibition of pain: 92%
[2]
  LD50: 1250 mg/kg

## CNCCOC1c2ccccc2N(C)S(=O)(=O)c2cscc21 (stereo not drawn) [example 53, 2-[(5,10-dihydro-4,4-dioxo-5-methylthieno[3,4-c][2,1]benzothiazepin-10-yl)oxy]-N-methylethylamine]
[3]
  prevents ptosis: 100%
  antagonism to hypothermia produced by tetrabenazine: 85%

## CN1c2ccccc2C(OCCN2CCCC2)c2cn(C)nc2S1(=O)=O (stereo not drawn) [example 91]
[3]
  prevents ptosis: 90%
  antagonism to hypothermia produced by tetrabenazine: 75%
